# Laboratory results: paper PMC10412597, “Small molecule branched-chain ketoacid dehydrogenase kinase (BDK) inhibitors with opposing effects on BDK protein levels” (Nature Communications, 2023)
# Read-outs that look alike come from different tables or passages of the source.
# Legend:
# [1] = biological target: T1, Phosphodiesterase 4D2 (Homo sapiens, UniProt Q08499); design: Cerep Bioprint off-target panel, enzyme or kinase inhibition; details: inhibitor
# T1 construct: gene PDE4D; isoform 4D2
# Method: (§1) To discover a potent and selective BDK inhibitor, a subset of the Pfizer compound collection was screened. […] Off target activity was assessed in both CEREP and kinase panels (Supplementary Tables 2, 3).
# [2] = biological target: Kdr Kinase (VEGFR2) (Homo sapiens, UniProt P35968); design: Cerep Bioprint off-target panel, enzyme or kinase inhibition; details: inhibitor
# Method: as §1
# [3] = biological target: T2, Cyclooxygenase 2 (Homo sapiens, UniProt P35354); design: Cerep Bioprint off-target panel, enzyme or kinase inhibition; details: inhibitor
# T2 construct: gene PTGS2
# Method: as §1
# [4] = biological target: T3, Angiotensin Coverting Enzyme (Homo sapiens, UniProt P12821); design: Cerep Bioprint off-target panel, enzyme or kinase inhibition; details: inhibitor
# T3 construct: gene ACE
# Method: as §1
# [5] = biological target: T4, LCK (Homo sapiens, UniProt P06239); design: Cerep Bioprint off-target panel, enzyme or kinase inhibition; details: inhibitor
# Method: as §1
# [6] = biological target: T5, PPAR-gamma (Homo sapiens, UniProt P37231); assay: biochemical; design: Cerep Bioprint off-target panel, ligand binding inhibition
# T5 construct: gene PPARG
# T5 sequence (P37231 1-505): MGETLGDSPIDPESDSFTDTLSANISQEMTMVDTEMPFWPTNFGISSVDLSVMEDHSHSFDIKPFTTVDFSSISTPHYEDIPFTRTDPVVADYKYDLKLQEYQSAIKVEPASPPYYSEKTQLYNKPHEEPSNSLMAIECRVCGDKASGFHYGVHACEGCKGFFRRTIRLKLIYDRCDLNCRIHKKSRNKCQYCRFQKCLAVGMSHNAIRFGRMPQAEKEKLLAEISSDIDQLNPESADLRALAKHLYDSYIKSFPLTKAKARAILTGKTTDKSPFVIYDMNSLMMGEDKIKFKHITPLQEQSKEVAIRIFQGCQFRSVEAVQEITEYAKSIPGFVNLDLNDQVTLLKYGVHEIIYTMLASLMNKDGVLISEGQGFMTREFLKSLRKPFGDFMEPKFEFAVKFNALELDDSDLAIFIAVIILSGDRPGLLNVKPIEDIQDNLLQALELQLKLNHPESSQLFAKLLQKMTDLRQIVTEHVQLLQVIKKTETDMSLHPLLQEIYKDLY
# Method: as §1
# [7] = biological target: PRKACA (Homo sapiens, UniProt P17612); design: Invitrogen kinase panel, per cent inhibition of kinase activity; details: 10 µM, inhibitor
# Method: as §1
# [8] = biological target: PIK3CG (Homo sapiens, UniProt P48736); design: Invitrogen kinase panel, per cent inhibition of kinase activity; details: 10 µM, inhibitor
# Outline: (§2)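 These are secondary selectivity data for BDK inhibitors, taken from kinase panels.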
# [9] = biological target: CSNK1A1 (Homo sapiens, UniProt P48729); design: Invitrogen kinase panel, per cent inhibition of kinase activity; details: 10 µM, inhibitor
# Method: as §1
# [10] = biological target: PI4KB (Homo sapiens, UniProt Q9UBF8); design: Invitrogen kinase panel, per cent inhibition of kinase activity; details: 10 µM, inhibitor
# Outline: as §2
# [11] = biological target: T6, IRAK4 (Homo sapiens, UniProt Q9NWZ3); design: Invitrogen kinase panel, per cent inhibition of kinase activity; details: 10 µM, inhibitor
# T6 sequence (Q9NWZ3 1-460): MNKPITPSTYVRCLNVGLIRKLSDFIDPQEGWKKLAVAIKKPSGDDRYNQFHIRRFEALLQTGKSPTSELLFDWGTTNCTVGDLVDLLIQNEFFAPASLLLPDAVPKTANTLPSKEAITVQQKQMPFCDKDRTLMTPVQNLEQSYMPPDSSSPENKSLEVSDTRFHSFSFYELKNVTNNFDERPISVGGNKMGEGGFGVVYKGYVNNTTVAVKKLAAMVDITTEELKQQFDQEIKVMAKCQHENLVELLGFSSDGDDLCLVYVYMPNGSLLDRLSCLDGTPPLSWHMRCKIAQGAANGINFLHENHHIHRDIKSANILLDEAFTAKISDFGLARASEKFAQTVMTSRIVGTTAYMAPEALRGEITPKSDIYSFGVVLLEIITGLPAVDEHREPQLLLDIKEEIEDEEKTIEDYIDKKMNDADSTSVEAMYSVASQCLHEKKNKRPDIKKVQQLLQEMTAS
# Method: as §1
# [12] = biological target: MAPK12 (Homo sapiens, UniProt P53778); design: Invitrogen kinase panel, per cent inhibition of kinase activity; details: 10 µM, inhibitor
# Outline: as §2
# [13] = biological target: T7, AURKA (Homo sapiens, UniProt O14965); design: Invitrogen kinase panel, per cent inhibition of kinase activity; details: 10 µM, inhibitor
# T7 sequence (O14965 1-403): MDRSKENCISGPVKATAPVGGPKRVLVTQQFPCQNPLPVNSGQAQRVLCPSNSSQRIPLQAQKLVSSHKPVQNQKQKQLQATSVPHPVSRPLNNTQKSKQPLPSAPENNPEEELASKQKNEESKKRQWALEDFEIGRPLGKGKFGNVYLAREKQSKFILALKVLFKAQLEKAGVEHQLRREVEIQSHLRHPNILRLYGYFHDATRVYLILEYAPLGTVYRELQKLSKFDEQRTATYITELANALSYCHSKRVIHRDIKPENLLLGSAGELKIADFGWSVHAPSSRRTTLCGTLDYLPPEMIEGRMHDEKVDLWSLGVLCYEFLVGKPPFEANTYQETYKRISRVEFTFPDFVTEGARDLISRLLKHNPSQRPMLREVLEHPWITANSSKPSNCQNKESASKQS
# Method: as §1
# [14] = biological target: PIK3C3 (Homo sapiens, UniProt Q8NEB9); design: Invitrogen kinase panel, per cent inhibition of kinase activity; details: 10 µM, inhibitor
# Outline: as §2
# [15] = biological target: T4, LCK; design: Invitrogen kinase panel, per cent inhibition of kinase activity; details: 10 µM, inhibitor
# Method: as §1
# T4 sequence (P06239 whole entry): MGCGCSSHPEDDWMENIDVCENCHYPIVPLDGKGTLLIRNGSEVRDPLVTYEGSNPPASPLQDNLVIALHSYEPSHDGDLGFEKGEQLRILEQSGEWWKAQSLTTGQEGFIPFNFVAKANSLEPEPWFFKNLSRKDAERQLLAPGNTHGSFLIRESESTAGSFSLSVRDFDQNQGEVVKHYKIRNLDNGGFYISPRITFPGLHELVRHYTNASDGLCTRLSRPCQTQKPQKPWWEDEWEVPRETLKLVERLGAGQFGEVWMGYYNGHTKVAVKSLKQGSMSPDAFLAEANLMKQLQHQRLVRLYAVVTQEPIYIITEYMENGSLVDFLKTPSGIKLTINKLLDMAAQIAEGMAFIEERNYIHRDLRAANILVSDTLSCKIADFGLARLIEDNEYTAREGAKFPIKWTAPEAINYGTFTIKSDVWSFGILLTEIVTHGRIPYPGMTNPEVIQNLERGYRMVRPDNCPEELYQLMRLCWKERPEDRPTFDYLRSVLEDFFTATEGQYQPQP
# Chain of CSNK1A1 (P48729 whole entry): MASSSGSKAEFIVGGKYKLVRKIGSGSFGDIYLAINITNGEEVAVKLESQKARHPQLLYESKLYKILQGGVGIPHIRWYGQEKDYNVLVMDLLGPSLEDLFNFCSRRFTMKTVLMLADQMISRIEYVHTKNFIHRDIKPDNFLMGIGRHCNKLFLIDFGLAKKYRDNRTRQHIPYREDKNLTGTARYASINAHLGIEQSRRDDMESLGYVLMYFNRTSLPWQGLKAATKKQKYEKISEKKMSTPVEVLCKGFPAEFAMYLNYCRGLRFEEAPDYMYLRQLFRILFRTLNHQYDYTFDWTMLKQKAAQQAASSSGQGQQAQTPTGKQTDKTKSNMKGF
# Chain of PI4KB (Q9UBF8 whole entry): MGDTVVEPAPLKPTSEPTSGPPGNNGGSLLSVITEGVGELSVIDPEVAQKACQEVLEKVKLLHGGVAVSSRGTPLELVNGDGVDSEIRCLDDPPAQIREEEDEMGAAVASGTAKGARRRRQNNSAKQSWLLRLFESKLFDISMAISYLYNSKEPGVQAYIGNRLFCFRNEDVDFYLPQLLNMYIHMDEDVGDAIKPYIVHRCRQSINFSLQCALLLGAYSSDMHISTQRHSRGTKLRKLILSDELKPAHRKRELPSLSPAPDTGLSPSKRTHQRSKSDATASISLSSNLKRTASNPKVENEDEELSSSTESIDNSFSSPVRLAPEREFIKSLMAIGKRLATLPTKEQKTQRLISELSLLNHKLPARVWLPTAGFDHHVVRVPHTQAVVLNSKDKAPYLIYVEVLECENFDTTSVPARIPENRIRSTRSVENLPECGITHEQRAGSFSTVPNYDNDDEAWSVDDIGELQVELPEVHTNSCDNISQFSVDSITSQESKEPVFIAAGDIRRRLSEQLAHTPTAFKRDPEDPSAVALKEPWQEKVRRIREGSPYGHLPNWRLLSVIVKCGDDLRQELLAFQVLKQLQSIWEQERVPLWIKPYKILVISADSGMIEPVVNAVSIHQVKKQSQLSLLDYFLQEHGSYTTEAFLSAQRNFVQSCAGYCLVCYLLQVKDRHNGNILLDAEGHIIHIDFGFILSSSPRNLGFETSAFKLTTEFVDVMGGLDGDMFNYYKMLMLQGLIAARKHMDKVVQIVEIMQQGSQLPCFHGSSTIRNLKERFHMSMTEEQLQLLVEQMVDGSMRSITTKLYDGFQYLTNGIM
# Chain of PIK3C3 (Q8NEB9 whole entry): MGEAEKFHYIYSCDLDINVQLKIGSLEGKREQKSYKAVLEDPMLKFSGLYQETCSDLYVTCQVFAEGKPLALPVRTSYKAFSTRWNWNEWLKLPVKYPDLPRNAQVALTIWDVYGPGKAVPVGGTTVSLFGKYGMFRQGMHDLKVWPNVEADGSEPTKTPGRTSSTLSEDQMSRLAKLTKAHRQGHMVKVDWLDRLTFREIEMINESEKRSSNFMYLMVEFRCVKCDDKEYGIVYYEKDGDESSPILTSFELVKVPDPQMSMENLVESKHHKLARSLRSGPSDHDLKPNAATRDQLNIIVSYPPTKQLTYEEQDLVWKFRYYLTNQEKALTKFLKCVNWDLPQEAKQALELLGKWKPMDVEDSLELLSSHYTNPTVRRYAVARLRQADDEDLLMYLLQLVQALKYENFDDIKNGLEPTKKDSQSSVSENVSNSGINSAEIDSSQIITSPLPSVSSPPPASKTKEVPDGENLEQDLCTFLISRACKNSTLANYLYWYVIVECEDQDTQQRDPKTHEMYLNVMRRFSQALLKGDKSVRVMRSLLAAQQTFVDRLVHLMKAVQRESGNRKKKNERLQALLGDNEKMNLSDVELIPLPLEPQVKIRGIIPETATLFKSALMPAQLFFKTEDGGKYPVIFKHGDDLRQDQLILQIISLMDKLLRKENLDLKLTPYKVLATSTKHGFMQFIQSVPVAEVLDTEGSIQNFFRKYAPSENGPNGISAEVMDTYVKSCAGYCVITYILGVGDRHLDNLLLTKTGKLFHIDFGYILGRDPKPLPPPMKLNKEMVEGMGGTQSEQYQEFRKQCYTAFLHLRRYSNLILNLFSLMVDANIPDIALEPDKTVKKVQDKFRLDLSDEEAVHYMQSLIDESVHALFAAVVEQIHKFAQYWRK
# Chain of PIK3CG (P48736 whole entry): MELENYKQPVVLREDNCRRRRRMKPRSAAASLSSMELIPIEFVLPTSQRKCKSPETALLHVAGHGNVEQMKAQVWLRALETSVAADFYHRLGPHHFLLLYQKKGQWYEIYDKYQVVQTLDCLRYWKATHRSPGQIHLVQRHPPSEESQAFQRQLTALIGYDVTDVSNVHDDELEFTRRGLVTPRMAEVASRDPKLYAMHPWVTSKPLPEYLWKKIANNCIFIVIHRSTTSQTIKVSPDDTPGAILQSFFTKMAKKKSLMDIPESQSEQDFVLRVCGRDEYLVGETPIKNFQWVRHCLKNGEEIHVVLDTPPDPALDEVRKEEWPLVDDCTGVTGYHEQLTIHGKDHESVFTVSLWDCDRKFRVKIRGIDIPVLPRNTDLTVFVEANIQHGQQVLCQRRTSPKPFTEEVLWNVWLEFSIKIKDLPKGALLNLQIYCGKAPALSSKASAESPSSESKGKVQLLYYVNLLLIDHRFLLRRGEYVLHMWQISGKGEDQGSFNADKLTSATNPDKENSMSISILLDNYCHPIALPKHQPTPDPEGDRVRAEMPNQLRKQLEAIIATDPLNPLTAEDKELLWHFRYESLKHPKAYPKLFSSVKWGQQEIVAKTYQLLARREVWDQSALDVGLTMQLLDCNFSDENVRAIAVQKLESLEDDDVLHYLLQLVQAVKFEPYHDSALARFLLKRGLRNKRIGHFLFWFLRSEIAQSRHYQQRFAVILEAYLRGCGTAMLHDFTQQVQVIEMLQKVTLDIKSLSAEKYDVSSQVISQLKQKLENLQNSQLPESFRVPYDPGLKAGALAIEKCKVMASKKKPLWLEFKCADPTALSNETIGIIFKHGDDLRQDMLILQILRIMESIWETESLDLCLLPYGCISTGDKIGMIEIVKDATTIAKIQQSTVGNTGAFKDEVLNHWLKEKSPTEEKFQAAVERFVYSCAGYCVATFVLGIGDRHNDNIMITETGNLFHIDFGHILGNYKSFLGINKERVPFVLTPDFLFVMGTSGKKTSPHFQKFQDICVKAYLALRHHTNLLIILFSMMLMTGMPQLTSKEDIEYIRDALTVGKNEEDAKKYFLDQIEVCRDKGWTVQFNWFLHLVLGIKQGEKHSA
# Chain of MAPK12 (P53778 whole entry): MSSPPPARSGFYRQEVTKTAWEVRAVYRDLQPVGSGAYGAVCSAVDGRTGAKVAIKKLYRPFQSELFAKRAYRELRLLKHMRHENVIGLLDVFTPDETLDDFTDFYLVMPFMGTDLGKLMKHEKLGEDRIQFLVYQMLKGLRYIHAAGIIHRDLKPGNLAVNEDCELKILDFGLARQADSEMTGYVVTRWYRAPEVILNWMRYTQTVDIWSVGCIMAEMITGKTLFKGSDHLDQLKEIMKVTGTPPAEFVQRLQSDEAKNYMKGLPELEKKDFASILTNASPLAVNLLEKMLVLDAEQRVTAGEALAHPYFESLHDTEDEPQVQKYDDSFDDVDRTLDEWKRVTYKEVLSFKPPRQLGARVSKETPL
# T2 sequence (P35354 whole entry): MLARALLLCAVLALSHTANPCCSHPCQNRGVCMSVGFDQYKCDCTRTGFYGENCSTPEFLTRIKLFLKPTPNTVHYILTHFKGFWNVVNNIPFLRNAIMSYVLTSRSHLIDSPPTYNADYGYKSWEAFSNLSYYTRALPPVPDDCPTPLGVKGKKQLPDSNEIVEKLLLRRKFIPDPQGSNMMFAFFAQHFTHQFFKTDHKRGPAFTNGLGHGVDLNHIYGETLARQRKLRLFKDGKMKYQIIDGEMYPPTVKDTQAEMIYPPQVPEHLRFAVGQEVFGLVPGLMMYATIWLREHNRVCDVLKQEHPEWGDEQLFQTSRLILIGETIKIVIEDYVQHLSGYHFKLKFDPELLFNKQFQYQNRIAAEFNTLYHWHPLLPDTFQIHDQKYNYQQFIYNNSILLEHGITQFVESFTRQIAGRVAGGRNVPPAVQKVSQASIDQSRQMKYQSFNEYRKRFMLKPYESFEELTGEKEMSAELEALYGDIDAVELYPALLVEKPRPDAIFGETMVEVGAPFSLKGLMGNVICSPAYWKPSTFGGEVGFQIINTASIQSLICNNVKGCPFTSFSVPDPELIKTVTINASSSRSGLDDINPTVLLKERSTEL
smiles,measurement,setting,value
"CCC1(COc2ccc(-c3csc(-c4ccccc4C(=O)O)n3)cn2)CC1 [PF-07247685, 2-(4-{6-[(1-ethylcyclopropyl)methoxy]pyridin-3-yl}-1,3-thiazol-2-yl)benzoic acid]",% Inhibition PF-07247685,[1]; 10 µM,-24%
same,% Inhibition PF-07247685,[2]; 10 µM,-11%
same,% Inhibition PF-07247685,[3]; 10 µM,4%
same,% Inhibition PF-07247685,[4]; 10 µM,-31%
same,% Inhibition PF-07247685,[5]; 10 µM,-2%
same,IC50,[6]; read-out: IC50 binding PF-07247685,50 µM
same,ATP = 1 mM % Inhibition PF-07247685,[7],0.3%
same,ATP = Km % Inhibition PF-07247685,[7],2.3%
same,ATP = Km % Inhibition PF-07247685,[8],-4.6%
same,ATP = 1 mM % Inhibition PF-07247685,[9],2.1%
same,ATP = Km % Inhibition PF-07247685,[9],3.1%
same,ATP = Km % Inhibition PF-07247685,[10],7.1%
same,ATP = 1 mM % Inhibition PF-07247685,[11],2.9%
same,ATP = Km % Inhibition PF-07247685,[11],-0.9%
same,ATP = Km % Inhibition PF-07247685,[12],4.6%
same,ATP = 1 mM % Inhibition PF-07247685,[13],2.2%
same,ATP = Km % Inhibition PF-07247685,[13],8.9%
same,ATP = Km % Inhibition PF-07247685,[14],3.0%
same,ATP = 1 mM % Inhibition PF-07247685,[15],3.0%
same,ATP = Km % Inhibition PF-07247685,[15],5.9%
"O=C(O)c1sc2cc(F)sc2c1Cl [PF-07208254, 3-chloro-5-fluorothieno[3,2-b]thiophene-2-carboxylic acid]",% Inhibition PF-07208254,[1]; 100 µM,-11%
same,% Inhibition PF-07208254,[2]; 100 µM,57%
same,% Inhibition PF-07208254,[3]; 100 µM,0%
same,% Inhibition PF-07208254,[4]; 100 µM,-4%
same,% Inhibition PF-07208254,[5]; 100 µM,-4%
same,IC50,[6],86 µM
same,ATP = 1 mM % Inhibition PF-07208254,[7],-2.4%
same,ATP = Km % Inhibition PF-07208254,[7],2.7%
same,ATP = Km % Inhibition PF-07208254,[8],4.8%
same,ATP = 1 mM % Inhibition PF-07208254,[9],-0.6%
same,ATP = Km % Inhibition PF-07208254,[9],9.2%
same,ATP = Km % Inhibition PF-07208254,[10],7.9%
same,ATP = 1 mM % Inhibition PF-07208254,[11],-2.1%
same,ATP = Km % Inhibition PF-07208254,[11],6.2%
same,ATP = Km % Inhibition PF-07208254,[12],13.3%
same,ATP = 1 mM % Inhibition PF-07208254,[13],-2.6%
same,ATP = Km % Inhibition PF-07208254,[13],9.4%
same,ATP = Km % Inhibition PF-07208254,[14],7.3%
same,ATP = 1 mM % Inhibition PF-07208254,[15],9.9%
same,ATP = Km % Inhibition PF-07208254,[15],20.6%
